Measurements from ChEMBL document CHEMBL2157914, “Synthesis, anti-inflammatory and antimicrobial evaluation of novel 1-acetyl-3,5-diaryl-4,5-dihydro (1H) pyrazole derivatives bearing urea, thiourea and sulfonamide moieties” (2012).
≈ marks a conversion by molar mass, not a printed value. Calls of active or inactive are those of the source. The rule behind the calls is not given here.

Experiments:
Salmonella typhimurium = experiment: Antibacterial activity against Salmonella typhimurium MTCC 98 after 24 hrs by agar well diffusion method; format: functional, Salmonella enterica subsp. enterica serovar Typhimurium; details: Salmonella enterica, MTCC 98, 24 h
Escherichia coli = experiment: Antibacterial activity against Escherichia coli MTCC 443 after 24 hrs by agar well diffusion method; format: functional; details: MTCC 443, 24 h
Fusarium solani [1] = experiment: Antifungal activity against Fusarium solani MTCC 350 after 2 to 3 days by agar well diffusion method; format: functional
THP-1 [2] = experiment: Antiinflammatory activity in human THP1 cells assessed as inhibition of LPS-stimulated IL-6 production at 10 uM incubated for 30 mins prior to LPS-challenge measured 24 hrs post LPS-challenge by ELISA; format: functional
Bacillus subtilis = experiment: Antibacterial activity against Bacillus subtilis MTCC 441 after 24 hrs by agar well diffusion method; format: functional; details: MTCC 441, 24 h
Aspergillus flavus [3] = experiment: Antifungal activity against Aspergillus flavus MTCC 277 after 2 to 3 days by agar well diffusion method; format: functional
Candida albicans = experiment: Antifungal activity against Candida albicans MTCC 227 after 2 to 3 days by agar well diffusion method; format: functional
Staphylococcus aureus = experiment: Antibacterial activity against Staphylococcus aureus MTCC 96 after 24 hrs by agar well diffusion method; format: functional; details: MTCC 96, 24 h
THP-1 [4] = experiment: Antiinflammatory activity in human THP1 cells assessed as inhibition of LPS-stimulated TNFalpha production at 10 uM incubated for 30 mins prior to LPS-challenge measured 24 hrs post LPS challenge by ELISA; format: functional
Aspergillus niger [5] = experiment: Antifungal activity against Aspergillus niger MTCC 281 after 2 to 3 days by agar well diffusion method; format: functional
Aspergillus niger [6] = experiment: Antifungal activity against Aspergillus niger MTCC 281 up to 200 ug/mL after 2 to 3 days by agar well diffusion method; format: functional, organism-based
Fusarium solani [7] = experiment: Antifungal activity against Fusarium solani MTCC 350 up to 200 ug/mL after 2 to 3 days by agar well diffusion method; format: functional, organism-based
Aspergillus flavus [8] = experiment: Antifungal activity against Aspergillus flavus MTCC 277 up to 200 ug/mL after 2 to 3 days by agar well diffusion method; format: functional, organism-based

Row | SMILES | MIC (Salmonella typhimurium) [µg/mL] | MIC (Escherichia coli) [µg/mL] | MIC (Fusarium solani [1]) [µg/mL] | inhibition at 10 µM (THP-1 [2]) [%] | MIC (Bacillus subtilis) [µg/mL] | MIC (Aspergillus flavus [3]) [µg/mL] | MIC (Candida albicans) [µg/mL] | MIC (Staphylococcus aureus) [µg/mL] | inhibition at 10 µM (THP-1 [4]) [%] | MIC (Aspergillus niger [5]) [µg/mL] | Activity (Aspergillus niger [6]) | Activity (Fusarium solani [7]) | Activity (Aspergillus flavus [8])
1 | COc1ccc(C2=NN(C(C)=O)C(c3ccc(NC(=O)Nc4ccccc4F)cc3)C2)cc1OC (configuration not stated) | 80 (≈ 168 µM) | 45 (≈ 94.4 µM) | 90 (≈ 189 µM) | 93 | 80 (≈ 168 µM) | 80 (≈ 168 µM) | 80 (≈ 168 µM) | 60 (≈ 126 µM) | 85 | 80 (≈ 168 µM) |  |  | 
2 | COc1ccc(C2=NN(C(C)=O)C(c3ccc(NC(=S)Nc4ccc(C#N)cc4)cc3)C2)cc1OC (configuration not stated) | 45 (≈ 90.1 µM) | 30 (≈ 60 µM) | 20 (≈ 40 µM) | 21 | 35 (≈ 70.1 µM) | 35 (≈ 70.1 µM) | 55 (≈ 110 µM) | 60 (≈ 120 µM) | 0 | 20 (≈ 40 µM) |  |  | 
3 | COc1ccc(C2=NN(C(C)=O)C(c3ccc(NC(=S)Nc4ccccc4F)cc3)C2)cc1OC (configuration not stated) | 90 (≈ 183 µM) | 55 (≈ 112 µM) | 90 (≈ 183 µM) | 84 | 80 (≈ 162 µM) | 90 (≈ 183 µM) | 80 (≈ 162 µM) | 80 (≈ 162 µM) | 78 |  | inactive |  | 
4 | COc1cccc(NC(=S)Nc2ccc(C3CC(c4ccc(OC)c(OC)c4)=NN3C(C)=O)cc2)c1 (configuration not stated) | 90 (≈ 178 µM) | 70 (≈ 139 µM) |  | 26 | 90 (≈ 178 µM) | 95 (≈ 188 µM) | 80 (≈ 159 µM) | 55 (≈ 109 µM) | 11 | 95 (≈ 188 µM) |  |  | 
5 | COc1ccc(C2=NN(C(C)=O)C(c3ccc([N+](=O)[O-])cc3)C2)cc1OC (configuration not stated) | 90 (≈ 244 µM) | 65 (≈ 176 µM) |  | 0 | 50 (≈ 135 µM) | 90 (≈ 244 µM) | 90 (≈ 244 µM) | 90 (≈ 244 µM) | 0 | 90 (≈ 244 µM) |  | inactive | 
6 | COc1ccc(C2=NN(C(C)=O)C(c3ccc(NC(=O)Nc4ccc(C(F)(F)F)cc4Cl)cc3)C2)cc1OC (configuration not stated) | 80 (≈ 143 µM) | 45 (≈ 80.2 µM) | 20 (≈ 35.7 µM) | 8 | 60 (≈ 107 µM) | 20 (≈ 35.7 µM) | 55 (≈ 98 µM) | 35 (≈ 62.4 µM) | 3 | 35 (≈ 62.4 µM) |  |  | 
7 | COc1ccc(C2=NN(C(C)=O)C(c3ccc(NS(=O)(=O)c4ccc(Br)cc4)cc3)C2)cc1OC (configuration not stated) | 30 (≈ 53.7 µM) | 30 (≈ 53.7 µM) | 15 (≈ 26.9 µM) | 0 | 65 (≈ 116 µM) | 40 (≈ 71.6 µM) | 25 (≈ 44.8 µM) | 30 (≈ 53.7 µM) | 0 | 15 (≈ 26.9 µM) |  |  | 
8 | COc1ccc(C2=NN(C(C)=O)C(c3ccc(NC(=O)Nc4cccc(Cl)c4F)cc3)C2)cc1OC (configuration not stated) | 90 (≈ 176 µM) | 90 (≈ 176 µM) |  | 76 | 90 (≈ 176 µM) |  | 90 (≈ 176 µM) | 90 (≈ 176 µM) | 61 |  | inactive | inactive | inactive
9 | COc1ccc(C2=NN(C(C)=O)C(c3ccc(NS(=O)(=O)c4ccc(C)cc4)cc3)C2)cc1OC (configuration not stated) | 90 (≈ 182 µM) | 75 (≈ 152 µM) | 65 (≈ 132 µM) | 0 | 90 (≈ 182 µM) | 90 (≈ 182 µM) | 70 (≈ 142 µM) | 90 (≈ 182 µM) | 0 | 90 (≈ 182 µM) |  |  | 
10 | COc1ccc(C2=NN(C(C)=O)C(c3ccc(NS(=O)(=O)c4cc(F)ccc4C)cc3)C2)cc1OC (configuration not stated) | 40 (≈ 78.2 µM) | 20 (≈ 39.1 µM) | 20 (≈ 39.1 µM) | 0 | 20 (≈ 39.1 µM) | 20 (≈ 39.1 µM) | 30 (≈ 58.6 µM) | 55 (≈ 108 µM) | 0 | 60 (≈ 117 µM) |  |  | 
11 | COc1ccc(NC(=S)Nc2ccc(C3CC(c4ccc(OC)c(OC)c4)=NN3C(C)=O)cc2)cc1 (configuration not stated) | 35 (≈ 69.4 µM) | 20 (≈ 39.6 µM) | 90 (≈ 178 µM) | 10 | 65 (≈ 129 µM) | 90 (≈ 178 µM) | 90 (≈ 178 µM) | 45 (≈ 89.2 µM) | 3 |  | inactive |  | 
12 | COc1ccc(C2=NN(C(C)=O)C(c3ccc(NC(=O)Nc4ccccc4OC(F)(F)F)cc3)C2)cc1OC (configuration not stated) | 60 (≈ 111 µM) | 40 (≈ 73.7 µM) | 60 (≈ 111 µM) | 75 | 40 (≈ 73.7 µM) | 30 (≈ 55.3 µM) | 40 (≈ 73.7 µM) | 55 (≈ 101 µM) | 58 | 75 (≈ 138 µM) |  |  | 
13 | O=C(O)c1cn(C2CC2)c2cc(N3CCNCC3)c(F)cc2c1=O [CIPROFLOXACIN] | 20 (≈ 60.4 µM) | 15 (≈ 45.3 µM) |  |  | 15 (≈ 45.3 µM) |  |  | 20 (≈ 60.4 µM) |  |  |  |  | 
14 | COc1ccc(C2=NN(C(C)=O)C(c3ccc(NS(=O)(=O)c4ccccc4C#N)cc3)C2)cc1OC (configuration not stated) | 90 (≈ 178 µM) | 90 (≈ 178 µM) | 80 (≈ 159 µM) | 31 | 65 (≈ 129 µM) | 70 (≈ 139 µM) | 65 (≈ 129 µM) | 80 (≈ 159 µM) | 10 | 40 (≈ 79.3 µM) |  |  | 
15 | Clc1ccc(COC(Cn2ccnc2)c2ccc(Cl)cc2Cl)c(Cl)c1 (configuration not stated) [MICONAZOLE] |  |  | 15 (≈ 36 µM) |  |  | 20 (≈ 48.1 µM) | 20 (≈ 48.1 µM) |  |  | 15 (≈ 36 µM) |  |  | 
16 | COc1ccc(C2=NN(C(C)=O)C(c3ccc(NC(=O)Nc4ccc(C(C)C)cc4)cc3)C2)cc1OC (configuration not stated) | 55 (≈ 110 µM) | 30 (≈ 59.9 µM) | 20 (≈ 40 µM) | 16 | 40 (≈ 79.9 µM) | 20 (≈ 40 µM) | 20 (≈ 40 µM) | 30 (≈ 59.9 µM) | 11 | 40 (≈ 79.9 µM) |  |  | 
17 | COc1ccc(C2=NN(C(C)=O)C(c3ccc(NS(=O)(=O)c4ccc(OC(F)(F)F)cc4)cc3)C2)cc1OC (configuration not stated) | 65 (≈ 115 µM) | 15 (≈ 26.6 µM) | 35 (≈ 62.1 µM) | 30 | 45 (≈ 79.9 µM) | 20 (≈ 35.5 µM) | 45 (≈ 79.9 µM) | 20 (≈ 35.5 µM) | 8 | 25 (≈ 44.4 µM) |  |  | 
18 | COc1ccc(C2=NN(C(C)=O)C(c3ccc(NC(=O)Nc4ccc(OC(F)(F)F)cc4)cc3)C2)cc1OC (configuration not stated) | 45 (≈ 82.9 µM) | 25 (≈ 46.1 µM) | 20 (≈ 36.9 µM) | 11 | 20 (≈ 36.9 µM) | 20 (≈ 36.9 µM) | 25 (≈ 46.1 µM) | 30 (≈ 55.3 µM) | 8 | 35 (≈ 64.5 µM) |  |  | 
19 | COc1ccc(C2=NN(C(C)=O)C(c3ccc(NC(=O)Nc4ccccc4C(F)(F)F)cc3)C2)cc1OC (configuration not stated) | 90 (≈ 171 µM) | 60 (≈ 114 µM) | 75 (≈ 142 µM) | 80 | 90 (≈ 171 µM) | 80 (≈ 152 µM) | 80 (≈ 152 µM) | 75 (≈ 142 µM) | 61 | 90 (≈ 171 µM) |  |  | 
